According to ChEMBL document CHEMBL1131149, “Acetylcholinesterase noncovalent inhibitors based on a polyamine backbone for potential use against Alzheimer's disease” (J Med Chem, 1998):

Key:
Cholinesterase = Cholinesterase (Homo sapiens, UniProt P06276)
Description: Inhibition of Butyrylcholinesterase (BChE) of human erythrocytes [-log IC50 (uM)]

Acetylcholinesterase [1] = biological target: T1, Acetylcholinesterase (Homo sapiens, UniProt P22303)
Description: Inhibition of acetylcholinesterase (AChE) of human erythrocytes

Acetylcholinesterase [2] = biological target: T1, Acetylcholinesterase; remark: listed apart in the source
Description: Inhibition constant determined against Acetylcholinesterase (AChE) receptor.

T1 sequence (P22303 whole entry): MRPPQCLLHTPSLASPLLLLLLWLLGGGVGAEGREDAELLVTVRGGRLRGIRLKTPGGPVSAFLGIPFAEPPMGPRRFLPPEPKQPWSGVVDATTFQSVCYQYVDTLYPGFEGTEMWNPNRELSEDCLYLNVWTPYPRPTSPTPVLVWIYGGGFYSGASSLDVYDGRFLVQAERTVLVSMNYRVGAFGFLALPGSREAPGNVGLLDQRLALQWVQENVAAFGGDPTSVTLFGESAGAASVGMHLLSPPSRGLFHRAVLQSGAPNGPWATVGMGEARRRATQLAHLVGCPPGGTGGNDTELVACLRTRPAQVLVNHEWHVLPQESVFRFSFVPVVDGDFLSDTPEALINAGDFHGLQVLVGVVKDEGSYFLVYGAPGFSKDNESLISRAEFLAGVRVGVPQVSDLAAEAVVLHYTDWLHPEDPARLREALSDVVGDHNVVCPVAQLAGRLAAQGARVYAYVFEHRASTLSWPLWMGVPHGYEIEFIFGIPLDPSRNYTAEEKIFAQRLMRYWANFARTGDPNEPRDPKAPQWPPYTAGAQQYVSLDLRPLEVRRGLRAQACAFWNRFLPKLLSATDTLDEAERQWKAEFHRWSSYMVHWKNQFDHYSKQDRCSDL
Sequence of Cholinesterase (P06276 whole entry): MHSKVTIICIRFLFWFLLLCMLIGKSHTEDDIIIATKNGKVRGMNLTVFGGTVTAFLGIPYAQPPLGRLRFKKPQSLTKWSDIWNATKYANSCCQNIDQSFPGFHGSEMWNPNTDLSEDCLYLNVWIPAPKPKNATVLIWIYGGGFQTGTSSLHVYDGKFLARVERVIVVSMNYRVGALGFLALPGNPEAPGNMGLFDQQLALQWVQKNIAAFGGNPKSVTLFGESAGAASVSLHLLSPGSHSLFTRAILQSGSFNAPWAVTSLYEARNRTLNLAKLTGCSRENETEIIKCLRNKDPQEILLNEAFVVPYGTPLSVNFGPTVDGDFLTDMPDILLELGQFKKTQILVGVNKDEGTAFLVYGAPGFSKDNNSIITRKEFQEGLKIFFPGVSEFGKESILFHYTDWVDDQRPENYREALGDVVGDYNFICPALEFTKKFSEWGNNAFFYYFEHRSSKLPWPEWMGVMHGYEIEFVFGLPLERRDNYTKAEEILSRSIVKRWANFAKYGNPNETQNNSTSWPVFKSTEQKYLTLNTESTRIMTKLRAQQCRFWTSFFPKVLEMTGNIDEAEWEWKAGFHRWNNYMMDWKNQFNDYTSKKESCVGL

Compound: COc1ccccc1CNCCCCCCNCCCCCCCNCCCCCCNCc1ccccc1OC
- IC50 (Cholinesterase): 3.72 µM

Compound: COc1ccccc1CNCCCCCC(=O)N(C)CCCCCCCCN(C)C(=O)CCCCCNCc1ccccc1OC
- IC50 (Cholinesterase): 6.03 µM
- IC50 (Acetylcholinesterase [1]): 0.309 µM

Compound: COc1ccccc1CNCCCCCCNCCSSCCNCCCCCCNCc1ccccc1OC [BENEXTRAMINE]
- IC50 (Cholinesterase): 6.17 µM
- IC50 (Acetylcholinesterase [1]): 7.24 µM

Compound: COc1ccccc1CNCCCCCCNCCCCCCNCCCCCCNCc1ccccc1OC
- IC50 (Cholinesterase): 1.38 µM
- IC50 (Acetylcholinesterase [1]): 6.46 µM

Compound: COc1ccccc1CNCCCCCCNCCCCCCCCNCCCCCCNCc1ccccc1OC [METHOCTRAMINE]
- IC50 (Cholinesterase): 0.977 µM

Compound: COc1ccccc1CNCCCCCC(=O)NCCCCCCCCNC(=O)CCCCCNCc1ccccc1OC
- IC50 (Cholinesterase): 11.5 µM
- IC50 (Acetylcholinesterase [1]): 1.86 µM

Compound: COc1ccccc1CN(C)CCCCCC(=O)N(C)CCCCCCCCN(C)C(=O)CCCCCN(C)Cc1ccccc1OC [CAPROCTAMINE]
- IC50 (Cholinesterase): 11.7 µM
- Ki (Acetylcholinesterase [2]): 0.000104 µM
- IC50 (Acetylcholinesterase [1]): 0.17 µM

Compound: NCCCCCCNCCSSCCNCCCCCCN
- IC50 (Cholinesterase): 646 µM
- IC50 (Acetylcholinesterase [1]): 501 µM

Compound: COc1ccccc1CNCCCCCCNCCCCCNCCCCCCNCc1ccccc1OC
- IC50 (Cholinesterase): 8.71 µM
- IC50 (Acetylcholinesterase [1]): 7.24 µM
